Where two headings read alike, the source gives them in different places.
Legend:
[1] = Thermodynamic stability and interconversion of polymorphs; type: physicochemical
[2] = Hygroscopicity of the crystalline form; type: physicochemical; settings: solid crystalline form

Row | Compound | polymorphic conversion under heating ([1]; conditions of heating) | hygroscopicity [2] | thermodynamic stability relative to other polymorphs [1] | polymorphic conversion in aqueous solvent systems ([1]; aqueous solvent systems) | thermodynamic stability relative to other polymorphs ([1]; listed as form A)
1 | Nc1cccc2c1CN(C1CCC(=O)NC1=O)C2=O (centres unmarked) [form B, 3-(4-amino-1-oxo-1,3-dihydro-isoindol-2-yl)-piperidine-2,6-dione] | convert to form A | – | – | – | –
2 | Nc1cccc2c1CN(C1CCC(=O)NC1=O)C2=O (centres unmarked) [lenalidomide crystalline form A, 3-(4-amino-1-oxo-1,3-dihydro-isoindol-2-yl)-piperidine-2,6-dione] | – | non-hygroscopic | most thermodynamically stable anhydrous polymorph | convert to form B | most thermodynamically stable form
